Laboratory results reported in the OligoGym collection.
These antisense oligonucleotides have a phosphorothioate backbone; sugars and methylation of C are not fully specified.

What follows are sequences tested against GNA11. Details: ASO.
Also: test concentration or dose not given here.

Compared with ACGGCCGCGAACACGAAG, ACGTGCTCTTCCCGCTCT is lower in remaining target (mRNA or protein) (fraction of control): 0.94 for the first, 0.72 for the second.

Going from ACTGACGTACTGATGCTC to AGATGATGTTCTCCAGGT, the remaining target (mRNA or protein) (fraction of control) rises from 0.64 to no less than 1.

Going from AGGGCTTTGCTCTCCTCC to ATCCGCTTGGACTCCTTC, the remaining target (mRNA or protein) (fraction of control) rises from 0.23 to 0.83.

First: ATCCGGAAGATGATGTTC
Second: ATCCGGTTCTCGTTGTCC
The remaining target (mRNA or protein) (fraction of control) of the first is higher: no less than 1 for the first, 0.78 for the second.

Compared with ATCTGCTTGATGAACGTG, ATCTTGTCCTCCAGCAGG is lower in remaining target (mRNA or protein) (fraction of control): no less than 1 for the first, 0.96 for the second.

ATGATGGATGTCACGTTC and ATGTTCTCCGTGTCGGTG cannot be ordered by remaining target (mRNA or protein) (fraction of control): no less than 1 for the first, no less than 1 for the second.

CACGCCATGATGGACTCC and CACGTGAAGTGTGAGTAG cannot be ordered by remaining target (mRNA or protein) (fraction of control): no less than 1 for the first, no less than 1 for the second.

CAGGAGCGCATTGGCCTT and CAGGGTCTTGATGGCACT cannot be ordered by remaining target (mRNA or protein) (fraction of control): no less than 1 for the first, no less than 1 for the second.

Going from CCAGGTCGAAAGGGTACT to CCATCCGGTTCTCGTTGT, the remaining target (mRNA or protein) (fraction of control) falls from no less than 1 to 0.81.

First: CCCGCCGCAGCTGCTTCT
Second: CGACTCCACCAGGACTTG
The remaining target (mRNA or protein) (fraction of control) of the first is lower: 0.42 for the first, 0.6 for the second.

CGAGAAACATGATGGATG and CGCATCTGCTTGATGAAC cannot be ordered by remaining target (mRNA or protein) (fraction of control): no less than 1 for the first, no less than 1 for the second.

First: CGCCTGCGGTCGTAGCAT
Second: CGGATCATGGCCTGCATG
The remaining target (mRNA or protein) (fraction of control) of the first is higher: no less than 1 for the first, 0.99 for the second.

First: CGTCCTGCTGGGTGGGCA
Second: CGTCTCCATGGCCCGGAT
The remaining target (mRNA or protein) (fraction of control) of the first is higher: 0.6 for the first, 0.51 for the second.

Going from CGTTGATCCGCTTGGACT to CTCATCGCTCAGGCAACA, the remaining target (mRNA or protein) (fraction of control) falls from no less than 1 to 0.39.

First: CTCCACGTCCACCTCCCG
Second: CTCCGCTCCGACCGCTGG
The remaining target (mRNA or protein) (fraction of control) of the first is lower: 0.31 for the first, 0.44 for the second.

CTCGATCTCGGCGTTGAT and CTGGATGCCCGGGTCCTC cannot be ordered by remaining target (mRNA or protein) (fraction of control): no less than 1 for the first, no less than 1 for the second.

Compared with CTTCACCTCATCGCTCAG, CTTGAGCTCGCGCCGGGC is lower in remaining target (mRNA or protein) (fraction of control): 0.8 for the first, 0.69 for the second.

First: CTTGATGGCACTGACGTA
Second: CTTGTCCTCCTCCGAGTA
The remaining target (mRNA or protein) (fraction of control) of the first is higher: 0.22 for the first, 0.21 for the second.

Going from GACTCCTTCACCTCATCG to GATCCACTTCCTCCGCTC, the remaining target (mRNA or protein) (fraction of control) falls from 0.85 to 0.41.

Going from GATGAACTCCCGCGCCGC to GATGCTCGAAGGTGGTCA, the remaining target (mRNA or protein) (fraction of control) rises from 0.48 to 0.67.

GATGGACTCCAGAGTCAT and GATGGTGTCCTTCACGGC cannot be ordered by remaining target (mRNA or protein) (fraction of control): no less than 1 for the first, no less than 1 for the second.

First: GCAGCAGCAGCTTGAGCT
Second: GCAGGTAGCCCAAGGTGG
The remaining target (mRNA or protein) (fraction of control) of the first is higher: no less than 1 for the first, 0.8 for the second.

First: GCAGGTCCTTCTTGTTGA
Second: GCCATGATGGACTCCAGA
The remaining target (mRNA or protein) (fraction of control) of the first is higher: 0.94 for the first, 0.25 for the second.

First: GCCCGTGCCGAGCAGCAG
Second: GCCTTGTTCTGCTCGTAC
The remaining target (mRNA or protein) (fraction of control) of the first is higher: no less than 1 for the first, 0.75 for the second.

Compared with GCGAGTACAGGATCTTGT, GCTGAGGGCGACGAGAAA is lower in remaining target (mRNA or protein) (fraction of control): 0.83 for the first, 0.25 for the second.

First: GCTGGTACTCGCGCCTGC
Second: GGAGGAGTTCTGGAACCA
The remaining target (mRNA or protein) (fraction of control) of the first is higher: 0.59 for the first, 0.36 for the second.

First: GGTCAACGTCGGTCAGGT
Second: GGTCACCTTCTCCACGTC
The remaining target (mRNA or protein) (fraction of control) of the first is higher: 0.82 for the first, 0.73 for the second.

First: GGTCCGGAACAGGGCTTT
Second: GGTGGTGGGCACGCGGAC
The remaining target (mRNA or protein) (fraction of control) of the first is lower: 0.74 for the first, no less than 1 for the second.

Compared with GGTTCAGGTCCACGAACA, GTAGATGATCTTGTCGCT is higher in remaining target (mRNA or protein) (fraction of control): 0.29 for the first, no less than 1 for the second.

Compared with GTAGCCGGCGCCGTGGAT, GTAGGTGATGATGGTCCG is higher in remaining target (mRNA or protein) (fraction of control): 0.99 for the first, no less than 1 for the second.

First: GTCAGGTAGTACTTGGCA
Second: GTGGCGATGCGGTCAACG
The remaining target (mRNA or protein) (fraction of control) of the first is lower: 0.24 for the first, 0.99 for the second.

Going from TACTTGGCAGAGTCGGAG to TAGACGAGCTTGGTGAAG, the remaining target (mRNA or protein) (fraction of control) rises from 0.66 to no less than 1.

Going from TAGAGGATCTTGAGCGTC to TCAGGTTCAGCTGCAGGA, the remaining target (mRNA or protein) (fraction of control) falls from no less than 1 to 0.97.

First: TCCTGGATGCCCGGGTCC
Second: TCGATGATGCCGGTGGTG
The remaining target (mRNA or protein) (fraction of control) of the first is lower: 0.7 for the first, no less than 1 for the second.

Compared with TGAGGAAGAGGATGACGG, TGCTCGTACTTGTAGAGG is lower in remaining target (mRNA or protein) (fraction of control): no less than 1 for the first, 0.93 for the second.

Sequence TGGCGGTGAAGATGTTCT has a remaining target (mRNA or protein) (fraction of control) of no less than 1.
